Data published in patent US20230404985A1, “METHODS OF TREATING TUMORS AND CANCERS HAVING DYSREGULATED WNT SIGNALING PATHWAYS” (ICAHN SCHOOL OF MEDICINE AT MOUNT SINAI, priority 2020, published 2023).

Experiments:
[1] = tested on: EZH2; experiment: Cellular fractionation, EZH2 localization in MYC-CTNNB1 tumor organoids; type: cell-based, mouse; settings: WNTinib 1 μM, sorafenib 10 μM, 24 hours
Description: Cells were spun down again at 500 g, 4° C., for 5 minutes in ultra-low attachment 1.5 mL Eppendorf tubes. Cells were resuspended in 100 μL of lysis buffer 1 (50 mM HEPES-KOH, pH 7.5, 140 mM NaCl, 1 mM EDTA, 10% glycerol, 0.5% NP-40, 0.25% Triton X-100, lx protease/phosphatase inhibitors) and agitated at 4° C. for 10 minutes. Lysate was spun at 1,350 g, 4° C., for 5 minutes. The supernatant was saved for the cytoplasmic fraction. The pellet was resuspended in 100 μL of lysis buffer 2 (10 mM Tris-HCl, pH 8.0, 200 mM NaCl, 1 mM EDTA, 0.5 mM EGTA, lx protease/phosphatase inhibitors) and agitated at room temperature for 10 minutes. The supernatant was saved for the nuclear fraction. The pellet was resuspended in 35 μL of lysis buffer 3 (10 mM Tris-HCl, pH 8.0, 100 mM NaCl, 1 mM EDTA, 0.5 mM EGTA, 0.1% Na-Deoxycholate, 0.5% N-lauroylsarcosine, lx protease/phosphatase inhibitors) and agitated at 4° C. for 10 minutes. 1/10 volume of 10% Triton X-100 was added to the lysate, which was spun down at 20,000 g, 4° C., for 10 minutes. Supernatant was taken for chromatin fraction. […] SDS-PAGE was performed using standard procedures.
Next, EZH2 localization in WNTinib sensitive MYC-CTNNB1 and insensitive MYC-Tp53 tumor organoids was investigated. EZH2 localized diffusively in the MYC-CTNNB1 model but was primarily nuclear insoluble in the MYC-Tp53 model (FIG. 6E; lanes 7-9, left and right panels).

[2] = tested on: MYC-CTNNB1 tumor organoids; experiment: Combination treatment matrices in MYC-CTNNB1 tumor organoids; type: cell-based, mouse; settings: for effect of EZH2 degradation or inhibition (MS1943, GSK343) on activity: 3 days MS1943 or GSK343, then 3 days co-treatment; for Combination Index CI with p38i SB202190: titration of SB202190; for Combination Index CI with p38i SB202190 / Combination Index CI with KIT ligand SCF / Combination Index CI with BRAFi dabrafenib: 3 days; for Combination Index CI with KIT ligand SCF: titration of SCF; for Combination Index CI with BRAFi dabrafenib: titration of dabrafenib
Source text: FIG. 6A-6C are Volcano plots depicting phosphoproteomic (FIG. 6A), transcriptomic (FIG. 6B), and orepigenomic H3K27me3 (FIG. 6C) changes elicited by WNTinib inMYC-CTNNB1 tumor organoids (left) or MYC-Tp53 tumor organoids (right) as compared to DMSO. […] Values obtained from two biological replicates. […] Western blots measure endogenous proteins as indicated. […] Tubulin and histone H3 used as fractionation controls. […] Inset: western blot depicting depletion efficiency. Values obtained from three biological replicates [mean, SEM]. […] Tumor organoids were first treated with MS1943 or GSK343 for 3 days, followed by co-treatment with sorafenib or WNTinib for an additional 3 days. […] Combination index (CI) values were calculated for each column and averaged across each matrix.
Tumor organoids were treated for 3 days. […] Combination index (CI) values were calculated for each column and averaged across each matrix. […] FIGS. 7G-7H show combination treatment matrices for MYC-CTNNB1 tumor organoids treated with sorafenib (right) or WNTinib (left) and the BRAF inhibitor dabrafenib (FIG. 7G), or the p38 inhibitor SB202190 (FIG. 7H). Tumor organoids were treated for 3 days. […] Combination index (CI) values were calculated for each column and averaged across each matrix. […] Values obtained from three technical replicates [mean, SEM].
For assays in organoid lines, 96 well plates were first coated with a 50:50 solution of basal media:Matrigel (35 μL/well), which polymerized for 15 minutes at 37° C. Tumor organoids were taken out of Matrigel, broken, and washed. Tumor organoids were seeded at 1,000 cells per well and were treated the following day with serial dilutions (in the case of IC50 curves) or single doses (in the case of the initial screen) of drugs in technical triplicate. Final DMSO concentrations were kept below 0.5%. For adherent lines, cells were seeded at 5,000 cells per well in uncoated 96 well plates. […] Viability was measured three days post drug administration with either luminescence from CellTiter-Glo or absorbance at 560 and 590 nm from resazurin. Viability data was analyzed by normalizing individual drug-treated well values to DMSO-treated wells.

[3] = tested on: MYC-Tp53 tumor organoid allografts; experiment: MYC-Tp53 tumor organoid allografts; type: in vivo, C57BL/6J mice; settings: 30 mg/kg daily oral gavage
Description: 300,000 cells per allograft were prepared in 8 mg/mL Matrigel. 6-8-week-old C57BL/6J mice were shaved the day prior to injection. A 26^5/8-gauge needle was used to implant organoids into the flank in 100 μL Matrigel. Tumor allografts were measured daily with calipers, and upon an average volumetric measurement of 100 mm^3, animals were randomized and drug dosing was started. Drugs were dosed daily at 30 mg/kg via oral gavage. Tumor allografts were also measured daily.
MYC-CTNNB1 tumor organoids were engrafted into C57BL/6 mice and treatment was started when tumor volume reached 100 mm^3.

[4] = tested on: MYC-lucOS; CTNNB1 mutant HCC; experiment: Hydrodynamic tail vein model of CTNNB1-mutated HCC, survival; type: in vivo, C57/BL6 mice; settings: 5 days on/2 days off
Description: A sterile 0.9% NaCl solution/plasmid mix was prepared containing DNA—12 μg of pT3-EF1α-MYC-IRES-luciferase-OS (MYC-lucOS), 10 μg of pT3-N90-CTNNB1 (CTNNB1), and a 4:1 ratio of transposon to SB13 transposase-encoding plasmid. A volume equivalent to 10% of mouse body weight was injected through the tail vein using a 3 mL syringe with a 26-gauge needle (11). Animals were monitored for 6 days, and bioluminescent signal from tumors was visualized using an IVIS Spectrum system. Anesthetized mice were imaged 5 minutes after intraperitoneal injection of 100 mg/kg D-luciferin (Thermo Fisher Scientific). IVIS Living Image software was used to quantify luciferase signal, which was normalized by subtracting background signal. […] Oral drug treatment began in randomized arms seven days after plasmid injection. Kinase inhibitors were prepared as stated above, and WNTinib and sorafenib were dosed at concentrations of 20 mg/kg and 30 mg/kg, respectively. Drugs were administered following a 5 days on/2 days off treatment schedule. Body weights were recorded daily, and animals were monitored for signs of sickness, tumor palpability, and death. Sick animals were sacrificed according to the ISMMS IACUC guidelines.
Given that tumors with dysregulated WNT signaling are associated with tumor immune exclusion and overall are refractory to treatment with immune checkpoint inhibitors, the efficacy of WNTinib was tested in combination with immunotherapy. First, a hydrodynamic tail vein mouse model of MYC-lucOS, CTNNB1 mutant HCC, which is known to be refractory to treatment with anti-PD-1 was used (Ruiz de Galarreta et al., “O-Catenin Activation Promotes Immune Escape and Resistance to Anti-PD-1 Therapy in Hepatocellular Carcinoma,” Cancer Discov. 9(8):1124-1141 (2019), which is hereby incorporated by reference in its entirety). C57/BL6 mice were randomized into treatment groups using IVIS imaging to quantify tumor size based on luminescence signal intensity. After randomization, kinase inhibitors were dissolved in 25% cremaphor:ethanol in water and administered orally (30 mg/kg sorafenib, 20 mg/kg WNTinib) beginning 7 days after injection following a 5 days on/2 days off dosing schedule. Immunotherapy (anti-PD-1) was administered via intraperitoneal injection on days 11, 13, and 15 after injection at […].

Structure (SMILES)	nuclear partitioning of EZH2 [1]	pT367 EZH2 in the cytoplasm [1]	effect of EZH2 degradation or inhibition (MS1943, GSK343) on activity [2]	Combination Index CI with p38i SB202190 [2]	Combination Index CI with KIT ligand SCF [2]	Combination Index CI with BRAFi dabrafenib [2]	activity in MYC-Tp53 allografts [3]	remaining animals alive, time post final dosing ([4]; WNTinib 20 mg/kg)	share of treatment arm that succumbed to death ([4]; WNTinib 20 mg/kg) [%]	survival benefit ([4]; WNTinib 20 mg/kg)	survival benefit ([4]; sorafenib 30 mg/kg) [days]
CNC(=O)c1cc(Oc2ccc(NC(=O)Nc3ccc(C(F)(F)C(F)(F)F)cc3)c(F)c2)ccn1 [WNTinib, 4-(3-fluoro-4-(3-(4-(perfluoroethyl)phenyl)ureido)phenoxy)-N-methylpicolinamide]	increase in nuclear partitioning of EZH2	ablated	antagonized the activity of WNTinib	> 1	> 1	> 1	inactive	over 300 days	40	significant survival benefit	–
CNC(=O)c1cc(Oc2ccc(NC(=O)Nc3ccc(Cl)c(C(F)(F)F)c3)cc2)ccn1 [sorafenib, reference compound]	did not impact phosphorylation or nuclear to cytoplasmic ratios of EZH2	did not impact phosphorylation	did not alter the dose response to sorafenib	this was not the case for sorafenib	only WNTinib and not sorafenib activity was antagonized	this was not the case for sorafenib	better activity	–	–	–	7.5
